Results on 3 compounds are retold here after PMC7501995 (Cell metabolism, 2020).

SMILES strings stand for the structures.

Test [1] concerns C57BL/6J mice rendered diabetic by multiple low-dose STZ. Put plainly: Multiple low-dose STZ-induced diabetes in C57BL/6J mice. The test is classed as in vivo, mouse. The conditions noted are these: STZ mice.
A further test has as its system human subjects with T1D. To be noted: ref Ovalle et al., 2018; cited from earlier work.

`OC[C@H]1O[C@@H](c2ccc(Cl)c(Cc3ccc(O[C@H]4CCOC4)cc3)c2)[C@H](O)[C@@H](O)[C@@H]1O` [empagliflozin, reference compound]: in test [1] (empagliflozin 10 mg/kg/day in drinking water), the glucose homeostasis result is “improved glucose homeostasis”. Regarding `CN(C)C(=N)N=C(N)N` [metformin, reference compound], the glucose homeostasis entry in test [1] (metformin 250 mg/kg/day in drinking water) is recorded as “improved glucose homeostasis”.

`COc1ccc(CCN(C)CCCC(C#N)(c2ccc(OC)c(OC)c2)C(C)C)cc1OC` (stereo not drawn) [verapamil]: in the test on human subjects with T1D, the “effect in randomized controlled trial in human subjects with T1D” value was “beneficial effects”.
